Where two headings read alike, the source gives them in different places.
Biological target: T1, MKLP-2 (RabK6) (Homo sapiens, UniProt O95235, S2A)
T1 construct: Expression clones for MKLP-21-519 (coding for residues 1 to 519) were obtained as follows; His-tag; made in house; host or cells: E. coli BL21(DE3)
T1 sequence (O95235 1-519 S2A limits assumed): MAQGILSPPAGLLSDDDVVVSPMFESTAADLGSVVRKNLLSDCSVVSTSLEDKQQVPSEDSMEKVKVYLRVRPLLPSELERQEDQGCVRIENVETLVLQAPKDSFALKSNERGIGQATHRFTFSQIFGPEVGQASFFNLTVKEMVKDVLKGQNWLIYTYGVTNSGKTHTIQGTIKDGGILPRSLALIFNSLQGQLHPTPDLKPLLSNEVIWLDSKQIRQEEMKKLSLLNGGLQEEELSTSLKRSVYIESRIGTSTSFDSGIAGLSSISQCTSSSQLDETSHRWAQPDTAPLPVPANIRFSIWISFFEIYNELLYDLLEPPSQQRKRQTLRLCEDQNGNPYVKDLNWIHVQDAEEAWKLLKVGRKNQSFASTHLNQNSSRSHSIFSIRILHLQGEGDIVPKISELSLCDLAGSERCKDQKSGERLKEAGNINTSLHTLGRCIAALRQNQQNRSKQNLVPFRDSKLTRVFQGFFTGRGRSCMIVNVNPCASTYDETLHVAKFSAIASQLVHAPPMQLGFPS
Test: biochemical
Protocol: All experiments were performed at room temperature using a 96-well Sunrise photometer (Tecan, Maennedorf, Switzerland) at a final volume of 100 μl per well.
Steady-state ATPase rates were measured using the pyruvate kinase/lactate dehydrogenase-linked assay in buffer A25A (25 mM potassium ACES, pH 6.9, 2 mM MgAc2, 2 mM Na-EGTA, 0.1 mM Na-EDTA, 1 mM β-mercaptoethanol) supplemented with 1 mM MgATP; 2 mM PEP; 0.25 mM NADH; 3-10 μg/ml pyruvate kinase; 3 μg/ml lactate dehydrogenase and 8 μM taxol.
The data were analyzed using Kaleidagraph 3.0 (Synergy Software, Reading, Pa.) and Microsoft Excel to obtain the kinetic variables.
When necessary, the inhibitor concentrations were adapted depending on the initial IC50 value. Experiments were performed in triplicate and averaged data points are shown with error bars±SD.

[1] = basal ATPase activity, absence of MTs, read-out: RabK6 basal IC50 X

| Structure (SMILES) | IC50 [µM] | IC50 [1] [µM] |
| --- | --- | --- |
| COc1ccc2[nH]cc(C(C)=Cc3cccnc3)c2c1 (racemic) [Example 59, 5-methoxy-3-(1-(pyridin-3-yl)prop-1-en-2-yl)-1H-indole] | < 5 |  |
| N#C/C(=C\c1ccccn1)c1c[nH]c2ccccc12 [Example 3, (Z)-2-(1H-indol-3-yl)-3-pyridin-2-yl-acrylonitrile] |  | > 50 |
| COc1ccc2[nH]cc(/C(C#N)=C/c3cccnc3)c2c1 [Example 4, (Z)-2-(5-methoxy-1H-indol-3-yl)-3-pyridin-3-yl-acrylonitrile] |  | < 5 |
| N#C/C(=C\c1cccnc1)c1c[nH]c2ccc(OCc3ccccc3)cc12 [Example 5, (Z)-2-(5-benzyloxy-1H-indol-3-yl)-3-pyridin-3-yl-acrylonitrile] |  | > 50 |
| COc1ccc2[nH]cc(/C(C#N)=C/c3ccccn3)c2c1 [Example 6, (Z)-2-(5-methoxy-1H-indol-3-yl)-3-pyridin-2-yl-acrylonitrile] |  | 10 to 20 |
| COc1ccc2[nH]cc(/C(C#N)=C/c3cc(OC)c(O)c(OC)c3)c2c1 [Example 7, (Z)-3-(4-hydroxy-3,5-dimethoxy-phenyl)-2-(5-methoxy-1H-indol-3-yl)-acrylonitrile] |  | 20 to 50 |
| N#C/C(=C\c1ccccc1)c1c[nH]c2ccccc12 [Example 9, (Z)-2-(1H-indol-3-yl)-3-phenyl-acrylonitrile] |  | 20 to 50 |
| N#C/C(=C\c1ccc2c(c1)OCO2)c1c[nH]c2ccccc12 [Example 11, (Z)-3-benzo[1,3]dioxol-5-yl-2-(1H-indol-3-yl)-acrylonitrile] |  | 10 to 20 |
| COc1cc(/C=C(\C#N)c2c[nH]c3ccc(OC)cc23)cc(OC)c1 [Example 14, (Z)-3-(3,5-dimethoxy-phenyl)-2-(5-methoxy-1H-indol-3-yl)-acrylonitrile] |  | 5 to 10 |
| N#C/C(=C\c1cncnc1)c1c[nH]c2ccccc12 [Example 15, (Z)-2-(1H-indol-3-yl)-3-pyrimidin-5-yl-acrylonitrile] |  | 10 to 20 |
| COc1ccc2[nH]cc(/C(C#N)=C/c3cncnc3)c2c1 [Example 16, (Z)-2-(5-methoxy-1H-indol-3-yl)-3-pyrimidin-5-yl-acrylonitrile] |  | 5 to 10 |
| COc1ccc2[nH]cc(C(C#N)Cc3cccnc3)c2c1 (stereo not drawn) [Example 18, 2-(5-methoxy-1H-indol-3-yl)-3-pyridin-3-yl-propionitrile] |  | 20 to 50 |
| CC(=O)Oc1ccc2[nH]cc(/C(C#N)=C/c3cccnc3)c2c1 [Example 20, 3-(1-cyano-2-(pyridin-3-yl)vinyl)-1H-indol-5-yl-acetate] |  | < 5 |
| COCC(=O)Oc1ccc2[nH]cc(/C(C#N)=C/c3cccnc3)c2c1 [Example 21, 3-(1-cyano-2-(pyridin-3-yl)vinyl)-1H-indol-5-yl-methoxyacetate] |  | 5 to 10 |
| CCOc1ccc2[nH]cc(/C(C#N)=C/c3cccnc3)c2c1 [Example 22, (Z)-2-(5-ethoxy-1H-indol-3-yl)-3-pyridin-3-yl-acrylonitrile] |  | < 5 |
| CC(C)Oc1ccc2[nH]cc(/C(C#N)=C/c3cccnc3)c2c1 [Example 23, (Z)-2-(5-isopropoxy-1H-indol-3-yl)-3-pyridin-3-yl-acrylonitrile] |  | < 5 |
| N#C/C(=C\c1cccnc1)c1c[nH]c2ccc(Cl)cc12 [Example 24, (Z)-2-(5-chloro-1H-indol-3-yl)-3-pyridin-3-yl-acrylonitrile] |  | < 5 |
| N#C/C(=C\c1cccnc1)c1c[nH]c2ccc(F)cc12 [Example 25, (Z)-2-(5-fluoro-1H-indol-3-yl)-3-pyridin-3-yl-acrylonitrile] | < 5 |  |

| Structure (SMILES) | IC50 [µM] | IC50 [1] [µM] |
| --- | --- | --- |
| COc1ccc2c(/C(C#N)=C/c3cccnc3)c[nH]c2c1 [Example 26, (Z)-2-(6-methoxy-1H-indol-3-yl)-3-pyridin-3-yl-acrylonitrile] | 5 to 10 |  |
| COc1cccc2[nH]cc(/C(C#N)=C/c3cccnc3)c12 [Example 27, (Z)-2-(4-methoxy-1H-indol-3-yl)-3-pyridin-3-yl-acrylonitrile] | 10 to 20 |  |
| COc1ccc2[nH]cc(/C(C#N)=C/c3ccc(F)nc3)c2c1 [Example 28, (Z)-3-(6-fluoropyridin-3-yl)-2-(5-methoxy-1H-indol-3-yl)-acrylonitrile] | < 5 |  |
| N#C/C(=C\c1cccnc1)c1c[nH]c2ccc(O)cc12 [Example 29, (Z)-2-(5-hydroxy-1H-indol-3-yl)-3-pyridin-3-yl-acrylonitrile] | < 5 |  |
| COc1ccc2[nH]cc(/C(C#N)=C/c3cccc(C#N)c3)c2c1 [Example 30, (Z)-3-[2-cyano-2-(5-methoxy-1H-indol-3-yl)-vinyl]-benzonitrile] | < 5 |  |
| COc1ccc2[nH]cc(/C(C#N)=C/c3cnccc3C)c2c1 [Example 31, (Z)-2-(5-methoxy-1H-indol-3-yl)-3-(4-methyl-pyridin-3-yl)-acrylonitrile] | < 5 |  |
| COc1ccc2[nH]cc(/C(C#N)=C/c3cccc(C(N)=O)c3)c2c1 [Example 32, (Z)-3-[2-cyano-2-(5-methoxy-1H-indol-3-yl)-vinyl]-benzamide] | 10 to 20 |  |
| COc1ccc2[nH]cc(/C(C#N)=C/c3ccc[n+](C)c3)c2c1 [Example 33, (Z)-3-[2-cyano-2-(5-methoxy-1H-indol-3-yl)-vinyl]-1-methylpyridinium iodide] | 10 to 20 |  |
| CCCc1nc2c(ccc3[nH]cc(/C(C#N)=C/c4cccnc4)c32)o1 [Example 34, (Z)-2-(2-propyl-6H-oxazolo[4,5-e]indol-8-yl)-3-(pyridin-3-yl)acrylonitrile] | > 50 |  |
| COc1cc(-c2ccc3[nH]cc(/C(C#N)=C/c4cccnc4)c3c2)cc(OC)c1OC [Example 38, (Z)-3-(pyridin-3-yl)-2-(5-(3,4,5-trimethoxyphenyl)-1H-indol-3-yl)-acrylonitrile] | 5 to 10 |  |
| N#C/C(=C\c1cccnc1)c1c[nH]c2ccc(-c3ccc(F)cc3)cc12 [Example 39, (Z)-2-(5-(4-fluorophenyl)-1H-indol-3-yl)-3-(pyridin-3-yl)-acrylonitrile] | 10 to 20 |  |
| COC(=O)Nc1ccc2[nH]cc(/C(C#N)=C/c3cccnc3)c2c1 [Example 41, (Z)-methyl 3-(1-cyano-2-(pyridin-3-yl)vinyl)-1H-indol-5-ylcarbamate] | < 5 |  |
| N#C/C(=C\c1cccc([N+](=O)[O-])c1)c1c[nH]c2ccccc12 [Example 42, (Z)-2-(1H-indol-3-yl)-3-(3-nitro-phenyl)-acrylonitrile] | > 50 |  |
| COc1ccc2[nH]cc(/C(C#N)=C/c3cccc([N+](=O)[O-])c3)c2c1 [Example 43, (Z)-2-(5-methoxy-1H-indol-3-yl)-3-(3-nitro-phenyl)-acrylonitrile] | > 50 |  |
| N#C/C(=C\c1cccc(N)c1)c1c[nH]c2ccccc12 [Example 44, (Z)-3-(3-amino-phenyl)-2-(1H-indol-3-yl)-acrylonitrile] | > 50 |  |
| COc1ccc2[nH]cc(/C(C#N)=C/c3cccc(N)c3)c2c1 [Example 45, (Z)-3-(3-amino-phenyl)-2-(5-methoxy-1H-indol-3-yl)-acrylonitrile] | > 50 |  |
| COc1cncc(/C=C(\C#N)c2c[nH]c3ccc(OC)cc23)c1 [Example 46, (Z)-2-(5-methoxy-1H-indol-3-yl)-3-(5-methoxy-pyridin-3-yl)-acrylonitrile] | 10 to 20 |  |
| COc1ccc2[nH]cc(/C(C#N)=C/c3cnccc3Cl)c2c1 [Example 47, (Z)-3-(4-chloro-pyridin-3-yl)-2-(5-methoxy-1H-indol-3-yl)-acrylonitrile] | 5 to 10 |  |
